We go through two compounds from patent publication US20230055705A1, “SUBSTITUTED THIOPHENE CARBOXAMIDES AND DERIVATIVES THEREOF” (Bayer Aktiengesellschaft, priority 2019, published 2023).

Series [1] deals with Xanthomonas campestris pv. campestris. In words: In vivo preventive test on Xanthomonas campestris pv. campestris (black rot on cabbage). The following applies: 31 ppm of active ingredient, evaluated 8 or 10 days after inoculation, read-out: efficacy. In outline: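 Young cabbage plants sprayed with compound in acetone/DMSO/Tween diluted in water; solvent-only controls. Leaves sprayed with bacterial suspension 72 h later, then held 8 or 10 days at 27° C and 95% relative humidity. Efficacy scored 8 or 10 days post-inoculation, 0% matching controls, 100% meaning no disease.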

Series [2] relates to young plants of cabbage. Nature of the series: Phytotoxicity observed in the in vivo preventive test on Xanthomonas campestris pv. campestris. The note with it: for phytotoxicity: 125 ppm. Here is the method:
The young plants of cabbage were treated by spraying the active ingredient prepared as described above. Control plants were treated only with an aqueous solution of acetone/Dimethyl sulfoxide/Tween®.
After 72 hours, the plants were contaminated by spraying the leaves with an aqueous bacteria suspension of Xanthomonas campestris pv. campestris. The contaminated cabbage plants were incubated for 8 or 10 days at 27° C. at 95% relative humidity.
Compounds CMP1, CMP2, CMP3 and CMP4 were tested in an in vivo preventive test on Xanthomonas campestris pv. campestris (black rot on cabbage) in the same conditions as described in Example H.

Series [3] deals with young plants of cabbage. In words: Phytotoxicity observed in the in vivo preventive test on Peronospora parasitica. The note with it: for phytotoxicity: 500 ppm. On the procedure:
The tested active ingredients were prepared by homogenization in a mixture of acetone/Dimethyl sulfoxide/Tween®, and then diluted with water to obtain the desired active material concentration. The young plants of cabbage were treated by spraying the active ingredient prepared as described above. Control plants were treated only with an aqueous solution of acetone/Dimethyl sulfoxide/Tween®.
After 72 hours, the plants were contaminated by spraying the leaves with an aqueous suspension of Peronospora parasitica spores. The contaminated cabbage plants were incubated for 5 days at 20° C. and at 100% relative humidity.
Compounds CMP2 and CMP3 were tested in an in vivo preventive test on Peronospora parasitica (Crucifer downy mildew) in the same conditions as described in Example G.

Regarding `CCOC(=O)[C@H](C)NC(=O)c1sc(Cl)c(Cl)c1Cl` [CMP3], in series [1], the pest or weed control at 31 ppm was 0%. Further, in the series with young plants of cabbage [2], the “phytotoxicity (in place of Efficacy (%) at 125 ppm)” value was “* (No efficacy measured due to over 80% phytotoxicity observed)” and the phytotoxicity result is reported as “over 80%”. For the same compound, in the series with young plants of cabbage [3], the “phytotoxicity (in place of Efficacy (%) at 500 ppm)” value is reported as “* (No efficacy measured due to over 80% phytotoxicity observed)” and the phytotoxicity entry was “over 80%”.

On to `COC(=O)[C@H](C)NC(=O)c1sc(Cl)c(Cl)c1Cl` [CMP2], for which, in series [1], the pest or weed control at 31 ppm is less than 40%. For the same compound, in the series on young plants of cabbage [2], the “phytotoxicity (in place of Efficacy (%) at 125 ppm)” value is on record as “* (No efficacy measured due to over 80% phytotoxicity observed)” and the phytotoxicity entry is “over 80%”. In addition, in the series on young plants of cabbage [3], the “phytotoxicity (in place of Efficacy (%) at 500 ppm)” value is “* (No efficacy measured due to over 80% phytotoxicity observed)” and the phytotoxicity result was “over 80%”.
